Test results taken from patent EP4678638A1, “NEW E3 UBIQUITIN LIGASE LIGAND, PROTEIN DEGRADATION AGENT AND USE THEREOF” (priority 2023, dated 2024).
Where two headings read alike, the source gives them in different places.

What was measured:
SW620 = assay: CCK-8 proliferation, SW620; assay type: cell-based; details: Homo sapiens, SW-620; CCK-8; 96 hours; read-out: Inhibitory activity (IC50) on tumor cell proliferation, SW620
How it was run: (§1)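 Cells seeded, then after 24 h treated with 10 concentrations (top 10 µM, 5-fold serial dilution) for a line-specific time at 37°C, 5% CO2. Viability read by CCK-8; IC50 fitted from growth-inhibition curves.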

MGC-803 = assay: CCK-8 proliferation, MGC-803 (heads: MGC80-3, MGC803); assay type: cell-based, Human; details: Homo sapiens, MGC-803, CCK-8, 72 hours
How it was run: as §1

CCRF-CEM = assay: CCK-8 proliferation, CCRF-CEM; assay type: cell-based, Human; details: Homo sapiens, CCRF-CEM; CCK-8; 96 hours; read-out: Inhibitory activity (IC50) on tumor cell proliferation, CCRF-CEM
How it was run: as §1

Jurkat = assay: CCK-8 proliferation, Jurkat; assay type: cell-based, Human; details: Homo sapiens, Jurkat; CCK-8; 96 hours; read-out: Inhibitory activity (IC50) on tumor cell proliferation, Jurkat
How it was run: as §1

CAL-62 = assay: CCK-8 proliferation, CAL-62; assay type: cell-based; details: Homo sapiens, 72 hours, read-out: Inhibitory activity (IC50) on tumor cell proliferation, CAL-62
Method: (§2) The tumor cells used herein were cultured in a cell culture medium listed in table A1 at 37°C in an incubator with 5% CO2. Prior to experimentation, all cell lines used were correctly identified by STR profiling, and tested negative for mycoplasma contamination using a mycoplasma detection kit through routine screenings. Table A1. Tumor cells and cell culture medium used in the present disclosure
(§3) IC50 values of the compounds of the present disclosure (including the compounds in Table 1, and compounds of examples) were measured using the Meilun Cell Counting Kit-8 kit from Dalian Meilun Biotech Co., Ltd. Assay details are as follows: tumor cells were seeded in a 96-well plate at a density listed in Table A2. After 24h, 100 µL of the inoculated cells were treated with 0.5µL of the compounds of the present disclosure (including the compounds in Tables 1 and 2, and compounds of examples) at 10 different successively decreasing concentrations (starting at the highest concentration of 10µM; 5-fold serial dilutions). After the cells were treated with the compounds of the present disclosure for a period of time, the cell viability detection reagent was added to the culture medium for cell viability assessment according to the instructions provided with the CCK-8 kit. […] The growth inhibition of the compounds of the present disclosure on cells was plotted by Prism Graphpad software, and the IC50 values of the compounds of the present disclosure were calculated therefrom. […] Seeding protocol and treatment time for tumor cells

Vcap = assay: CCK-8 proliferation, Vcap; assay type: cell-based; details: Homo sapiens, 96 hours, read-out: Inhibitory activity (IC50) on tumor cell proliferation, Vcap
Method: as §2
IC50 values of the compounds of the present disclosure (including the compounds in Table 1, and compounds of examples) were measured using the Meilun Cell Counting Kit-8 kit from Dalian Meilun Biotech Co., Ltd. Assay details are as follows: tumor cells were seeded in a 96-well plate at a density listed in Table A2. After 24h, 100 µL of the inoculated cells were treated with 0.5µL of the compounds of the present disclosure (including the compounds in Tables 1 and 2, and compounds of examples) at 10 different successively decreasing concentrations (starting at the highest concentration of 10µM; 5-fold serial dilutions). […] The growth inhibition of the compounds of the present disclosure on cells was plotted by Prism Graphpad software, and the IC50 values of the compounds of the present disclosure were calculated therefrom. […]

[1] = molecular target: T1, human Cereblon WT GST-tagged protein (Homo sapiens, UniProt Q96SW2); assay: CRBN binding, HTRF (CEREBLON BINDING kit); details: Table II-2, CRBN binding screening, HTRF; for inhibition at 0.5 µM: read-out: Inhibition rate (%) at 0.5µM; for inhibition at 2 µM: read-out: Inhibition rate (%) at 2 µM
T1 construct: purchased CISBIO 64BDCRBNPEH
How it was run: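 After 3 h at room temperature, emission at 665 and 620 nm was measured in a homogeneous time-resolved fluorescence format. Compounds competed with a Thalidomide-Re probe for GST-tagged wild-type human CRBN, which was labelled with a Eu anti-GST antibody.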

TRK = assay: Western blot degradation of TRK / NTRK (SK-N-AS Cell); assay type: cell-based; details: Table D14
Method: (§4) Conventional Western blot assay was performed to evaluate the effects of the compounds of the present disclosure on the expression of target proteins in cells.
(§5) (1) Cell Seeding and Protein Harvesting: The selected cells were processed according to the cell seeding procedure and protein harvesting procedure in Table III-2. Table III-2 Cell Seeding and Protein Harvesting Procedures
(§6) (2) To the collected supernatant, 5X SDS sample loading buffer was added, followed by denaturation at 95°C for 5 minutes. The denatured samples were then separated by SDS-PAGE electrophoresis on a polyacrylamide gel. Proteins were transferred to a nitrocellulose membrane (0.45 µm NC membrane), blocked with blocking buffer at room temperature for 1 hour, and subjected to antibody incubation and development procedures according to the antibody manufacturer's instructions (Cell Signaling Technology).
(§7) Half-Maximal Degradation Concentration value (the drug concentration required for degrading proteins by 50%, abbreviated as DC50) reads method: comparing the grayscale values of Western blot bands from drug-treated samples with those from blank DMSO-treated controls, and identifying the drug concentration range at which the grayscale value is half that of the DMSO-treated control bands.
(§8) DC50 values can be calculated using ImageJ software to measure grayscale values of Western blot bands from drug-treated samples. The concentration-response curve is fitted to estimate the drug concentration corresponding to half the grayscale value.
(§9) Target protein remaining (%) refers to the percentage of target protein remaining in hPBMC cells after treatment with protein degrader compounds.
(§10) Calculation method for target protein remaining (%): Use ImageJ software to measure grayscale values of Western blot bands from drug (protein degrader)-treated samples. The grayscale value of drug-treated bands is divided by that of internal control protein bands, and the resulting quotient is normalized to obtain the relative percentage of remaining target protein after protein degrader treatment. […]

LNcap = assay: CCK-8 proliferation, LNcap; assay type: cell-based; details: Homo sapiens, LNCaP; CCK-8; 96 hours; read-out: Inhibitory activity (IC50) on tumor cell proliferation, Lncap
How it was run: as §1

CFPAC-1 = assay: CCK-8 proliferation, CFPAC-1; assay type: cell-based; details: Homo sapiens, 72 or 96 hours, read-out: Inhibitory activity (IC50) on tumor cell proliferation, CFPAC-1
Method: as §2, §3

BCR-ABL = molecular target: T2, BCR-ABL (Homo sapiens, UniProt P00519+P11274+Q96SW2, E27K); assay: Western blot degradation of BCR-ABL (K562 Cell); assay type: cell-based; details: Table D15
T2 construct: evaluate the effects of the compounds of the present disclosure on the expression of target proteins in cells; endogenous in cells; host or cells: K562
Method: as §4, §5, §6, §7, §8, §9, §10

BXPC-3 = assay: CCK-8 proliferation, BXPC-3; assay type: cell-based; details: Homo sapiens, 96 hours, read-out: Inhibitory activity (IC50) on tumor cell proliferation, BXPC-3
How it was run: as §1

THP-1 = assay: CCK-8 proliferation, THP-1; assay type: cell-based; details: Homo sapiens, 72 hours, read-out: Inhibitory activity (IC50) on tumor cell proliferation, THP-1
How it was run: as §1

H520 = assay: CCK-8 proliferation, H520; assay type: cell-based; details: Homo sapiens, NCI-H520, 96 hours, read-out: Inhibitory activity (IC50) on tumor cell proliferation, H520
Method: as §2, §3

AR = molecular target: T3, AR (Homo sapiens, UniProt P10275+Q96SW2, T878A); assay: Western blot degradation of AR (LnCap Cell); assay type: cell-based; details: Table D11
T3 construct: evaluate the effects of the compounds of the present disclosure on the expression of target proteins in cells; endogenous in cells; host or cells: LnCap
Method: as §4, §5, §6, §7
DC50 values can be calculated using ImageJ software to measure grayscale values of Western blot bands from drug-treated samples. […]

DU-145 = assay: CCK-8 proliferation, DU-145; assay type: cell-based; details: Homo sapiens, 96 hours, read-out: Inhibitory activity (IC50) on tumor cell proliferation, DU-145
Method: as §2, §3

[2] = read-out: Inhibitory activity (IC50) on tumor cell proliferation, MGC803

T1 sequence (Q96SW2 whole entry): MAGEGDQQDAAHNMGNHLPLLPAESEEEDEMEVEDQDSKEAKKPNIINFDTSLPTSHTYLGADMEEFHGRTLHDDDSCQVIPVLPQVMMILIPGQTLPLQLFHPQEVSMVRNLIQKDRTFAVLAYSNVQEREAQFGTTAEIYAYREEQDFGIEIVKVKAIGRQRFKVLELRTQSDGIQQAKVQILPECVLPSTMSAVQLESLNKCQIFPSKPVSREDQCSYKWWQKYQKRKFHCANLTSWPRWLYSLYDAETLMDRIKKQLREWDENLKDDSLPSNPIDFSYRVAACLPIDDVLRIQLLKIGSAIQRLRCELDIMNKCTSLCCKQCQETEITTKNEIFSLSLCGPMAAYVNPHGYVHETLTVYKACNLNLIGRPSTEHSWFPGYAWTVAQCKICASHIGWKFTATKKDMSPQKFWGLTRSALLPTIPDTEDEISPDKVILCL
T2 sequence (P11274+P00519 fused, stated change not applied): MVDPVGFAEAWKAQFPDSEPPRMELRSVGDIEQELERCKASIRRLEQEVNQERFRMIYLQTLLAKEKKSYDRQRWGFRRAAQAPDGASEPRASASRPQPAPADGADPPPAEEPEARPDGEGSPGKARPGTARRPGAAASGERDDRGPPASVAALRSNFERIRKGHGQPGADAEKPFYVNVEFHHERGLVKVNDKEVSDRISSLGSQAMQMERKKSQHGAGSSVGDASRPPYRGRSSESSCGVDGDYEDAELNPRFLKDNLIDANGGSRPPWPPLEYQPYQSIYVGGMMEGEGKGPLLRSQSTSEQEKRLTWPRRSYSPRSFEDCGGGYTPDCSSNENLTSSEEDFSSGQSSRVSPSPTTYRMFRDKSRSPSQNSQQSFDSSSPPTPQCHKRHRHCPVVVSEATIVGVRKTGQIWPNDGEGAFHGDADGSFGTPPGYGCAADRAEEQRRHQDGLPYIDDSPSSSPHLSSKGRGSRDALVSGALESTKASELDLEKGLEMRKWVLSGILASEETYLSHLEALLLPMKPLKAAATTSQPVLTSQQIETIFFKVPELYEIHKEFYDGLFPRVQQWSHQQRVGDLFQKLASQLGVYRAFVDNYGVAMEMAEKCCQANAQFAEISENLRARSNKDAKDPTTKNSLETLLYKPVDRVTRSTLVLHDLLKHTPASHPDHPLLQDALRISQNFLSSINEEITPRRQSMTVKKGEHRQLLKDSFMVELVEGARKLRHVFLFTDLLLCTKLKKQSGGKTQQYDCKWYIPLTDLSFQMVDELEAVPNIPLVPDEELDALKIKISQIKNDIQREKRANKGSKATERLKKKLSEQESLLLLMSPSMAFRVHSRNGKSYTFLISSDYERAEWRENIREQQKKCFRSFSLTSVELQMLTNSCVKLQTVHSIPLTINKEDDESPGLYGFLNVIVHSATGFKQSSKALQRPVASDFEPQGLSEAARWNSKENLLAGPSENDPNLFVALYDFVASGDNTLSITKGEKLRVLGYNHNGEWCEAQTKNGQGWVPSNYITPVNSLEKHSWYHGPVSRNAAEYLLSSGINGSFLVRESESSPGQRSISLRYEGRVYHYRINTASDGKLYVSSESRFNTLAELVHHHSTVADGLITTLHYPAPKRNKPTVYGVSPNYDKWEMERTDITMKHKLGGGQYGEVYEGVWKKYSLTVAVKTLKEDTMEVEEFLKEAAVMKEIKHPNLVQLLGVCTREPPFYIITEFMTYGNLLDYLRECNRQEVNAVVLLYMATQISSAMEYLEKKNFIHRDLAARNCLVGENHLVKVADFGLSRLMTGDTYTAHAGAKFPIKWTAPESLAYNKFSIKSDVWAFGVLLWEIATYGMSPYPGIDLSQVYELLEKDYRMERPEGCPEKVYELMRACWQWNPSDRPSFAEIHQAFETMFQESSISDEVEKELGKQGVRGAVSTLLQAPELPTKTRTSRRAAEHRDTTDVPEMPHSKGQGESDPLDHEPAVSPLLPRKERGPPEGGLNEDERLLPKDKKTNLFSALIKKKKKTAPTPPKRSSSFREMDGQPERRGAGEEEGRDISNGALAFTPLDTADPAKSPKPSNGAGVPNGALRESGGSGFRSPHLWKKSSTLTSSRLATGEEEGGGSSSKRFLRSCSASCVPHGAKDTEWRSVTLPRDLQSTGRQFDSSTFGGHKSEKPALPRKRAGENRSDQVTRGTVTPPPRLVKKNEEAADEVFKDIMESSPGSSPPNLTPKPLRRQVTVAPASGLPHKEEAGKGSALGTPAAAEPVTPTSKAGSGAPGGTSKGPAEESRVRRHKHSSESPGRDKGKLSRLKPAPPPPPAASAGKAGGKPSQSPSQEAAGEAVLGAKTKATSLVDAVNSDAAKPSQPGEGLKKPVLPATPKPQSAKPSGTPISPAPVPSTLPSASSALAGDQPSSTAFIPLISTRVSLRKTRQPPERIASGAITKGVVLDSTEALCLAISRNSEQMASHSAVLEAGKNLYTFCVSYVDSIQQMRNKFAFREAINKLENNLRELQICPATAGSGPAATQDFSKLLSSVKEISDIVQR
T2 sequence (Q16531 whole entry, stated change not applied, further chain): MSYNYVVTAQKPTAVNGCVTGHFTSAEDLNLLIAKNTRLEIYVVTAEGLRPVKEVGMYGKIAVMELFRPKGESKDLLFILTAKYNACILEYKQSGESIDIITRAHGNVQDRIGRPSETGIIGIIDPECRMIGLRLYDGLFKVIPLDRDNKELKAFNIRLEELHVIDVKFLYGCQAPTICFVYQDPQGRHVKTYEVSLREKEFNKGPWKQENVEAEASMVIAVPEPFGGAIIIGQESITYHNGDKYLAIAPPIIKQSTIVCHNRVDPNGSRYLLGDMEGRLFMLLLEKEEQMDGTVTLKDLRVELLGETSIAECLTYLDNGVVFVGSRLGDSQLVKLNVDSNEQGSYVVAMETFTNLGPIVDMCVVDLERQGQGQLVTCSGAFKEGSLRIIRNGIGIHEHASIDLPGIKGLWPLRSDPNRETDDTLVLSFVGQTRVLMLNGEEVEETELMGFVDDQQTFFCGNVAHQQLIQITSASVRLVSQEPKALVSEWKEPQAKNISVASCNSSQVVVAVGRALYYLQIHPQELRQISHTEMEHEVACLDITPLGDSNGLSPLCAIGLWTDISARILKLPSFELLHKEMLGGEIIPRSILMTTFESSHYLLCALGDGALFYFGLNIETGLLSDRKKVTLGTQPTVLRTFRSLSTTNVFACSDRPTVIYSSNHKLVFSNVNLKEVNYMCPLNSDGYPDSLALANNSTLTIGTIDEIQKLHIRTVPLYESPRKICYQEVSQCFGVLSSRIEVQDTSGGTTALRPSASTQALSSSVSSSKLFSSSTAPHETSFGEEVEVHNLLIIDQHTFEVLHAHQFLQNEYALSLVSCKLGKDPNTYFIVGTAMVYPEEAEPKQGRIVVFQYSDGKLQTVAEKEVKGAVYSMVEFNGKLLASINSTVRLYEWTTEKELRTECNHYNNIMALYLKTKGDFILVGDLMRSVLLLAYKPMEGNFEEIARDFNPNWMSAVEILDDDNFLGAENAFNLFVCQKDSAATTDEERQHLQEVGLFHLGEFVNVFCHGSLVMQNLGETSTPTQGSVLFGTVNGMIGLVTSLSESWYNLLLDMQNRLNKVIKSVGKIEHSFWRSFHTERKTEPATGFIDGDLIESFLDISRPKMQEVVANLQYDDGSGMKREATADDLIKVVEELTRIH
T2 sequence (Q96SW2 whole entry, stated change not applied): as the sequence (Q96SW2 whole entry) above
T3 sequence (P10275 whole entry T878A): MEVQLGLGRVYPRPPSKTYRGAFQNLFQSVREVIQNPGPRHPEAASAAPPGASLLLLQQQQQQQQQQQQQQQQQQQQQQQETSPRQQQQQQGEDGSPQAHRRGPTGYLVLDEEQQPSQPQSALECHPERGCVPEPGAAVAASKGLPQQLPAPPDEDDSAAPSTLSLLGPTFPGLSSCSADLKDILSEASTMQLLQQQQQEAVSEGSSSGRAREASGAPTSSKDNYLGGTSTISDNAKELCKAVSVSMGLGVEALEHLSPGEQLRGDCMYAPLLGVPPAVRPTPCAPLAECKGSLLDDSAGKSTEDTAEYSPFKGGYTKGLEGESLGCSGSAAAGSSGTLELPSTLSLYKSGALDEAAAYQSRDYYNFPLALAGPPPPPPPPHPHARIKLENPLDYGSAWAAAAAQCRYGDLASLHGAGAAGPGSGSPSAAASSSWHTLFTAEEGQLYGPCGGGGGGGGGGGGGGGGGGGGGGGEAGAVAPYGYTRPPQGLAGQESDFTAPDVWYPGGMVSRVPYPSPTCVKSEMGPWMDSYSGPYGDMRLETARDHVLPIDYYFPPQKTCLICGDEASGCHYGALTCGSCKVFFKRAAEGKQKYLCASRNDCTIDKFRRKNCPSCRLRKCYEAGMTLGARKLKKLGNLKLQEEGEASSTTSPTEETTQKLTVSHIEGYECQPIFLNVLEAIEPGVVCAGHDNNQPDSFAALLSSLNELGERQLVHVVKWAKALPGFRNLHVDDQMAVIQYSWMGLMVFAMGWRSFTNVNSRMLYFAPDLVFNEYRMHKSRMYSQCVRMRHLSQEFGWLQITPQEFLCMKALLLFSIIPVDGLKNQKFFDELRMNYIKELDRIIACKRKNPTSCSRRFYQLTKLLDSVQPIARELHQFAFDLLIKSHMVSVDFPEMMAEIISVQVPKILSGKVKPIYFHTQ
T3 sequence (Q96SW2 whole entry): as the sequence (Q96SW2 whole entry) above
T3 sequence (Q16531 whole entry partner): as the sequence (Q16531 whole entry, stated change not applied, further chain) above

## O=C1CC[C@H](N2Cc3cc(N4CCN(CC5CCN(c6ccc([C@@H]7c8ccc(O)cc8CC[C@@H]7c7ccccc7)cc6)CC5)CC4)ccc3C2=O)C(=O)N1 [ARV-471, reference compound]
SW620
  IC50: 1000 to 5000 nM
MGC-803; read-out: Inhibitory activity (IC50) on tumor cell proliferation, MGC80-3
  IC50: > 10000 nM
CCRF-CEM
  IC50: > 10000 nM
Jurkat
  IC50: > 10000 nM
CAL-62
  IC50: > 10000 nM
Vcap
  IC50: > 10000 nM

## O=C1CCC(c2ccc(CN3CCN(c4ccc([C@@H]5c6ccc(O)cc6CC[C@@H]5c5ccccc5)cc4)CC3)cc2)C(=O)N1 (stereo partly drawn) [GT-03856, 3-(4-((4-(4-((1R,2S)-6-hydroxy-2-phenyl-1,2,3,4-tetrahydronaphthalen-1-yl)phenyl)piperazin-1-yl)methyl)phenyl)piperidine-2,6-dione]
CCRF-CEM
  IC50: 100 to 500 nM
Jurkat
  IC50: 100 to 500 nM
CAL-62
  IC50: 100 to 500 nM
Vcap
  IC50: 500 to 1000 nM

## CN(Cc1ccc(C2CCC(=O)NC2=O)cc1)C1CCN(c2cccc(-c3cnc4ccc(N5CCC[C@@H]5c5cccc(F)c5)nn34)n2)CC1 (stereo partly drawn) [GT-03898, 3-(4-(((1-(6-(6-((R)-2-(3-fluorophenyl)pyrrolidin-1-yl)imidazo[1,2-b]pyridazin-3-yl)pyridin-2-yl)piperidin-4-yl)(methyl)amino)methyl)phenyl)piperidine-2,6-dione]
[1]
  inhibition at 0.5 µM: 60 to 80%
  inhibition at 2 µM: 80 to 100%
TRK
  Degradation of substrate protein TRK (substrate protein remaining %): A (A is defined as 0% ≤ substrate protein remaining % ≤ 80%)

## Cc1ccc(C(=O)Nc2ccc(CN3CCN(Cc4ccc(C5CCC(=O)NC5=O)c(F)c4)CC3)c(C(F)(F)F)c2)cc1C#Cc1cnc2cccnn12 (stereo not drawn) [GT-03937, N-(4-((4-(4-(2,6-dioxopiperidin-3-yl)-3-fluorobenzyl)piperazin-1-yl)methyl)-3-(trifluoromethyl)phenyl)-3-(imidazo[1,2-b]pyridazin-3-ylethynyl)-4-methylbenzamide]
SW620
  IC50: 50 to 100 nM
MGC-803; [2]
  IC50: 100 to 500 nM
CCRF-CEM
  IC50: 50 to 100 nM
Jurkat
  IC50: 50 to 100 nM
LNcap
  IC50: 50 to 100 nM
CFPAC-1
  IC50: 100 to 500 nM
BCR-ABL
  Degradation of substrate protein BCR-ABL (substrate protein remaining %): A (A is defined as 0% ≤ substrate protein remaining % ≤ 80%)

## CN(Cc1ccc(C2CCC(=O)NC2=O)c(F)c1)C1CCN(c2ccc(C(=O)Nc3n[nH]c4ccc(Cc5cc(F)cc(F)c5)cc34)c(NC3CCOCC3)c2)CC1 (stereo not drawn) [GT-03965, N-(5-(3,5-difluorobenzyl)-1H-indazol-3-yl)-4-(4-((4-(2,6-dioxopiperidin-3-yl)-3-fluorobenzyl)(methyl)amino)piperidin-1-yl)-2-((tetrahydro-2H-pyran-4-yl)amino)benzamide]
TRK
  Degradation of substrate protein TRK (substrate protein remaining %): A (A is defined as 0% ≤ substrate protein remaining % ≤ 80%)

## O=C1CCC(c2ccc(CN3CCC(N4CCN(c5ncc(C(=O)Nc6ccc(OC(F)(F)Cl)cc6)cc5-c5cc[nH]n5)CC4)CC3)cc2)C(=O)N1 (stereo not drawn) [GT-04058, N-(4-(chlorodifluoromethoxy)phenyl)-6-(4-(1-(4-(2,6-dioxopiperidin-3-yl)benzyl)piperidin-4-yl)piperazin-1-yl)-5-(1H-pyrazol-3-yl)nicotinamide]
BCR-ABL
  Degradation of substrate protein BCR-ABL (substrate protein remaining %): A (A is defined as 0% ≤ substrate protein remaining % ≤ 80%)

## O=C1CCC(c2ccc(CN3CCC(N4CCN(c5ncc(C(=O)Nc6ccc(OC(F)(F)Cl)cc6)cc5-c5cc[nH]n5)CC4)CC3)cc2F)C(=O)N1 (stereo not drawn) [GT-04059, N-(4-(chlorodifluoromethoxy)phenyl)-6-(4-(1-(4-(2,6-dioxopiperidin-3-yl)-3-fluorobenzyl)piperidin-4-yl)piperazin-1-yl)-5-(1H-pyrazol-3-yl)nicotinamide]
SW620
  IC50: 100 to 500 nM
MGC-803; [2]
  IC50: 500 to 1000 nM
BCR-ABL
  Degradation of substrate protein BCR-ABL (substrate protein remaining %): A (A is defined as 0% ≤ substrate protein remaining % ≤ 80%)

## Cn1cc(-c2cc(S(C)(=O)=O)ccc2OCc2cccc(NC3CCC(=O)NC3=O)c2)c2cc[nH]c2c1=O (stereo not drawn) [GT-04641, 3-((3-((2-(6-methyl-7-oxo-6,7-dihydro-1H-pyrrolo[2,3-c]pyridin-4-yl)-4-(methylsulfonyl)phenoxy)methyl)phenyl)amino)piperidine-2,6-dione]
BXPC-3
  IC50: 500 to 1000 nM
THP-1
  IC50: 500 to 1000 nM
H520
  IC50: 500 to 1000 nM
[1]
  inhibition at 0.5 µM: 20 to 30%
  inhibition at 2 µM: 60 to 80%
AR
  Degradation of substrate protein AR (substrate protein remaining %): A (A is defined as 0% ≤ substrate protein remaining % ≤ 80%)

## Cc1ccc(-c2c(C)noc2C)cc1N(CC1CCN(Cc2ccc(N3CCC(=O)NC3=O)cn2)CC1)c1ccc(C2(C#N)CC2)cc1 [GT-06411, 1-(4-((5-(3,5-dimethylisoxazol-4-yl)-2-methylphenyl)((1-((5-(2,4-dioxotetrahydropyrimidin-1(2H)-yl)pyridin-2-yl)methyl)piperidin-4-yl)methyl)amino)phenyl)cyclopropane-1-carbonitrile]
DU-145
  IC50: 500 to 1000 nM
AR
  Degradation of substrate protein AR (substrate protein remaining %): A (A is defined as 0% ≤ substrate protein remaining % ≤ 80%)
